From patent US8192962B2, “Processes for detecting toxic substances” (Daikin Industries, Ltd., priority 2001, dated 2012)

Test system: Detoxification protein genes
Test: DNA chip mRNA expression in yeast, detoxification protein genes (Table 8)
Format: cell-based, Saccharomyces cerevisiae S288C
Experimental: Yeast (Saccharomyces cerevisiae S288C (α SUC2mal mel gap2 CUP1)) were incubated at 25° C. on YPD medium (yeast extract 1%, polypepton 2%, glucose 2%). One of toxic chemical substances was added to the cells at logarithmic growth phase, and the cells were further incubated for two hours. Cells were cultured without any chemical substance in the same condition, and were used as control. Concentrations of the chemical substances were defined to inhibit the growth of the yeast but not lead to death.
After completion of the incubation, the culture was centrifuged to collect the cells. To the cells, sodium acetate buffer (50 mM sodium acetate, 10 mM EDTA, 1% SDS) was added, and the mixture was shaken at 65° C. for five minutes, followed by returning to room temperature, and obtaining the supernatant, of which the procedures were repeated two times. To the supernatant, ½ amount of a solution of phenol/chloroform was added, and the mixture was centrifuged to give a supernatant, which was added with an equal amount of chloroform, and the mixture was centrifuged to give a supernatant. To the supernatant, an equal amount of isopropanol containing 0.3 M sodium acetate was added, and the mixture was allowed to stand at room temperature for 30 minutes, after which the mixture was centrifuged to give a sediment of the whole RNAs. Seventy % ethanol was added to the sediment, and the mixture was again centrifuged to give a sediment, which was then dried and dissolved in water. mRNA was isolated from the whole RNAs as followings. In view of the fact that a poly A chain is attached to the 3′ terminus of mRNA, a polynucleotide having a poly T structure which was immobilized on the surface of latex beads was used to trap the mRNA, and then the mRNA was washed and eluted with spine column (Oligotex-dT30<Super>mRNA Purification Kit, Takara). Reverse transcription of the mRNA was conducted with a reverse transcriptase (Super Script II Reverse Transcriptase; catalogue No. 18064-014, GibcoBRL) using fluorescence-labeled nucleotides to give cDNAs that were introduced with Cy3-dUTP or Cy5-dUTP during the reverse transcription.
The labeled cDNAs were dissolved in TE buffer (10mM Tris-HCl/1 mM EDTA, pH8.0), and the solution was dropped on the DNA chip containing the whole genes of yeast (DNA Chip Research Inc. Japan) so that the cDNAs were hybridized on the DNA chip at 65° C. for over 12 hours. The fluoresces intensity of the DNA chip was read with a scanner, and the ratio relative to the fluorescence intensity resulting from the absence of chemical substance was estimated as the following, which is shown in Tables 1 to 9: […]

SMILES: [Cl][Pb][Cl] [(4), PbCl2]
- The level of expressed mRNA in the presence of chemical substance/The level of expressed mRNA in the absence of chemical substance (yeast gene YBR244W): 0.9
- The level of expressed mRNA in the presence of chemical substance/The level of expressed mRNA in the absence of chemical substance (yeast gene YBR293W): 1.8
- The level of expressed mRNA in the presence of chemical substance/The level of expressed mRNA in the absence of chemical substance (yeast gene YCL035C): 1.7
- The level of expressed mRNA in the presence of chemical substance/The level of expressed mRNA in the absence of chemical substance (yeast gene YCL069W): 0.8
- The level of expressed mRNA in the presence of chemical substance/The level of expressed mRNA in the absence of chemical substance (yeast gene YCR083W): 1.8
- The level of expressed mRNA in the presence of chemical substance/The level of expressed mRNA in the absence of chemical substance (yeast gene YDL100C): 0.8
- The level of expressed mRNA in the presence of chemical substance/The level of expressed mRNA in the absence of chemical substance (yeast gene YDL168W): 0.9
- The level of expressed mRNA in the presence of chemical substance/The level of expressed mRNA in the absence of chemical substance (yeast gene YDR256C): 1.3
- The level of expressed mRNA in the presence of chemical substance/The level of expressed mRNA in the absence of chemical substance (yeast gene YDR453C): 3.0
- The level of expressed mRNA in the presence of chemical substance/The level of expressed mRNA in the absence of chemical substance (yeast gene YDR513W): 2.6
- The level of expressed mRNA in the presence of chemical substance/The level of expressed mRNA in the absence of chemical substance (yeast gene YDR538W): 1.2
- The level of expressed mRNA in the presence of chemical substance/The level of expressed mRNA in the absence of chemical substance (yeast gene YEL027W): 1.1
- The level of expressed mRNA in the presence of chemical substance/The level of expressed mRNA in the absence of chemical substance (yeast gene YEL065W): 0.4
- The level of expressed mRNA in the presence of chemical substance/The level of expressed mRNA in the absence of chemical substance (yeast gene YER185W): 7.0
- The level of expressed mRNA in the presence of chemical substance/The level of expressed mRNA in the absence of chemical substance (yeast gene YFL050C): 2.2
- The level of expressed mRNA in the presence of chemical substance/The level of expressed mRNA in the absence of chemical substance (yeast gene YGL013C): 0.7
- The level of expressed mRNA in the presence of chemical substance/The level of expressed mRNA in the absence of chemical substance (yeast gene YGL254W): 0.6
- The level of expressed mRNA in the presence of chemical substance/The level of expressed mRNA in the absence of chemical substance (yeast gene YGR088W): 2.4
- The level of expressed mRNA in the presence of chemical substance/The level of expressed mRNA in the absence of chemical substance (yeast gene YGR138C): 1.2
- The level of expressed mRNA in the presence of chemical substance/The level of expressed mRNA in the absence of chemical substance (yeast gene YGR197C): 1.0
- The level of expressed mRNA in the presence of chemical substance/The level of expressed mRNA in the absence of chemical substance (yeast gene YGR209C): 1.5
- The level of expressed mRNA in the presence of chemical substance/The level of expressed mRNA in the absence of chemical substance (yeast gene YGR224W): 1.2
- The level of expressed mRNA in the presence of chemical substance/The level of expressed mRNA in the absence of chemical substance (yeast gene YHL040C): 0.4
- The level of expressed mRNA in the presence of chemical substance/The level of expressed mRNA in the absence of chemical substance (yeast gene YHL047C): 1.0
- The level of expressed mRNA in the presence of chemical substance/The level of expressed mRNA in the absence of chemical substance (yeast gene YHR008C): 1.8
- The level of expressed mRNA in the presence of chemical substance/The level of expressed mRNA in the absence of chemical substance (yeast gene YHR048W): 1.7
- The level of expressed mRNA in the presence of chemical substance/The level of expressed mRNA in the absence of chemical substance (yeast gene YHR053C): 1.1
- The level of expressed mRNA in the presence of chemical substance/The level of expressed mRNA in the absence of chemical substance (yeast gene YHR055C): 1.2
- The level of expressed mRNA in the presence of chemical substance/The level of expressed mRNA in the absence of chemical substance (yeast gene YIR002C): 0.6
- The level of expressed mRNA in the presence of chemical substance/The level of expressed mRNA in the absence of chemical substance (yeast gene YIR038C): 2.0
- The level of expressed mRNA in the presence of chemical substance/The level of expressed mRNA in the absence of chemical substance (yeast gene YJL101C): 1.2
- The level of expressed mRNA in the presence of chemical substance/The level of expressed mRNA in the absence of chemical substance (yeast gene YJR104C): 1.2
- The level of expressed mRNA in the presence of chemical substance/The level of expressed mRNA in the absence of chemical substance (yeast gene YKL026C): 4.9
- The level of expressed mRNA in the presence of chemical substance/The level of expressed mRNA in the absence of chemical substance (yeast gene YKL064W): 0.8
- The level of expressed mRNA in the presence of chemical substance/The level of expressed mRNA in the absence of chemical substance (yeast gene YKR066C): 0.7
- The level of expressed mRNA in the presence of chemical substance/The level of expressed mRNA in the absence of chemical substance (yeast gene YKR105C): 1.5
- The level of expressed mRNA in the presence of chemical substance/The level of expressed mRNA in the absence of chemical substance (yeast gene YKR106W): 1.4
- The level of expressed mRNA in the presence of chemical substance/The level of expressed mRNA in the absence of chemical substance (yeast gene YLL028W): 0.5
- The level of expressed mRNA in the presence of chemical substance/The level of expressed mRNA in the absence of chemical substance (yeast gene YLL057C): 0.9
- The level of expressed mRNA in the presence of chemical substance/The level of expressed mRNA in the absence of chemical substance (yeast gene YLL060C): 2.6
- The level of expressed mRNA in the presence of chemical substance/The level of expressed mRNA in the absence of chemical substance (yeast gene YLR043C): 1.8
- The level of expressed mRNA in the presence of chemical substance/The level of expressed mRNA in the absence of chemical substance (yeast gene YLR046C): 0.8
- The level of expressed mRNA in the presence of chemical substance/The level of expressed mRNA in the absence of chemical substance (yeast gene YML028W): 1.3
- The level of expressed mRNA in the presence of chemical substance/The level of expressed mRNA in the absence of chemical substance (yeast gene YML116W): 1.4
- The level of expressed mRNA in the presence of chemical substance/The level of expressed mRNA in the absence of chemical substance (yeast gene YMR015C): 0.9
- The level of expressed mRNA in the presence of chemical substance/The level of expressed mRNA in the absence of chemical substance (yeast gene YMR038C): 0.8
- The level of expressed mRNA in the presence of chemical substance/The level of expressed mRNA in the absence of chemical substance (yeast gene YNL239W): 1.2
- The level of expressed mRNA in the presence of chemical substance/The level of expressed mRNA in the absence of chemical substance (yeast gene YNL241C): 1.0
- The level of expressed mRNA in the presence of chemical substance/The level of expressed mRNA in the absence of chemical substance (yeast gene YNL259C): 1.2
- The level of expressed mRNA in the presence of chemical substance/The level of expressed mRNA in the absence of chemical substance (yeast gene YOL158C): 0.9
- The level of expressed mRNA in the presence of chemical substance/The level of expressed mRNA in the absence of chemical substance (yeast gene YOR031W): 3.4
- The level of expressed mRNA in the presence of chemical substance/The level of expressed mRNA in the absence of chemical substance (yeast gene YOR153W): 1.1
- The level of expressed mRNA in the presence of chemical substance/The level of expressed mRNA in the absence of chemical substance (yeast gene YOR247W): 1.4
- The level of expressed mRNA in the presence of chemical substance/The level of expressed mRNA in the absence of chemical substance (yeast gene YOR251C): 1.8
- The level of expressed mRNA in the presence of chemical substance/The level of expressed mRNA in the absence of chemical substance (yeast gene YOR273C): 1.0
- The level of expressed mRNA in the presence of chemical substance/The level of expressed mRNA in the absence of chemical substance (yeast gene YPL163C): 0.9
- The level of expressed mRNA in the presence of chemical substance/The level of expressed mRNA in the absence of chemical substance (yeast gene YPR200C): 5.0
